For orientation: IC50 means the concentration at which inhibition is half-maximal. Read a high IC50 as a need for much substance.

Here are results for 14 molecules from US20100041760A1, “MONOARYL AMINOTETRALINES” (priority 2008, published 2010).

A value given as a limit tells only on which side of the number the result lay.

Assay [1] addresses T1, thromboxane A2 receptor (TP) (Homo sapiens, UniProt P21731).
T1 construct: using human platelets as the source of the receptor; from tissue; host or cells: human platelets (whole platelets, 5x10^7 per well)
T1 sequence (P21731 1-343): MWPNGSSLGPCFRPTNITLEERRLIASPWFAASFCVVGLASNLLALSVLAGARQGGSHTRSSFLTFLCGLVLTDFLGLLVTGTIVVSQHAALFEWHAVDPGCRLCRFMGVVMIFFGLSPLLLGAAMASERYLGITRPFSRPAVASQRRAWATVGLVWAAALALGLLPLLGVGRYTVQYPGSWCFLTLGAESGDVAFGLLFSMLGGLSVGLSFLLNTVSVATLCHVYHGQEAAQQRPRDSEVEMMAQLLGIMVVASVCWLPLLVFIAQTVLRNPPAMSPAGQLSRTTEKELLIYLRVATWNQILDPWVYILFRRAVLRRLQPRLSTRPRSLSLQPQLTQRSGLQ
In words: Human Thromboxane A2 Receptor Binding Assay. Conditions: human platelets; 10 nM [3H]SQ29548; 1 hour, room temperature. The source says:
The thromboxane A2 receptor (TP) plays a key role in hemostasis as its abnormality leads to bleeding disorders. To avoid the potential liability of bleeding disorders, the binding activity of certain compounds of the present invention against TP was monitored by a receptor binding assay using human platelets as the source of the receptor and [^3H]SQ29548 (generically named (5Z)-[5,6-^3H]-7-[(1S,2R,3R,4R)-3-[[2-[(phenylamino)carbonyl]hydrazinyl]methyl]-7-oxabicyclo[2.2.1]hept-2-yl]-5-heptenoic acid, from PerkinElmer Inc.) as the competing radioactive ligand.
The TP binding reactions (0.2 mL) were performed in 96-well plates at room temperature in PBS containing 5×10^7 platelets, 10 mM MgCl2, 0.06% BSA, 10 nM [^3H]SQ29548, and the test compound at various concentrations. After 1 hour of binding reactions, the platelets were harvested on GF/B filter plates (as previously described from PerkinElmer Inc.) and washed 5 times with PBS using a Filtermate™ Harvester (as previously described from PerkinElmer Inc.). The radioactivities bound to the platelets were determined using a microplate scintillation counter (TopCount® NXT, from PerkinElmer Inc.) after adding 50 μL of Microscint™ 20 scintillation fluid (from PerkinElmer Inc.) to each well of the filter plates. The radioactivity from non-specific binding was determined by replacing the compound with 10 μM of ramatroban (BAY-u3405, from Cayman Chemical Company) in the reaction mixtures. The radioactivity bound to the platelets in the absence of compound (total binding) was determined by replacing the compound with 0.25% of DMSO in the reaction mixture. Specific binding data were obtained by subtracting the radioactivity of non-specific binding from each binding data.
(§1) The IC50 value is defined as the concentration of the tested compound that is required for 50% inhibition of total specific binding. In order to calculate the IC50 value, the percent inhibition data were determined for 7 concentrations for each compound. The percent inhibition for a compound at each concentration was calculated according to the following formula, [1−(specific binding in the presence of compound)/(total specific binding)]×100. The IC50 value was then obtained by fitting the percent inhibition data to a sigmoidal dose-response (4 parameter logistic) model in the XLfit® software Excel add-in program [from ID Business Solutions Ltd., model 205, where F(x)=(A+(B−A)/(1+((C/x)̂D)))].

The next assay addresses T2, human CRTH2 (Homo sapiens, UniProt Q9Y5Y4).
T2 sequence (Q9Y5Y4 1-395): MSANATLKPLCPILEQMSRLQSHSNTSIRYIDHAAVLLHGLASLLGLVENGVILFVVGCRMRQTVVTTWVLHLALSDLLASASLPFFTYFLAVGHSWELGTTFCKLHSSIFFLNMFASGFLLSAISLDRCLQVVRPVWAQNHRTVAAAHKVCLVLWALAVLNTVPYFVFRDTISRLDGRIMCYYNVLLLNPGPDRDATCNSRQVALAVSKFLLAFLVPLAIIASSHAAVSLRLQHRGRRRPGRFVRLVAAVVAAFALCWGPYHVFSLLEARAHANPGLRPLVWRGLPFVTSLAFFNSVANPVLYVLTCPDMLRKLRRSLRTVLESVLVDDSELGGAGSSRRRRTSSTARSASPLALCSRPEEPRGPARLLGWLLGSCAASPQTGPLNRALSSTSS
Kind of assay: Human CRTH2 Receptor Binding Assay (whole cell, [3H]ramatroban competition). The arrangement: expressed in transfected cells; host or cells: CHO-K1 (co-transfected with G-alpha16). The following applies: CHO-K1 cells expressing human CRTH2 and G-alpha16; 20 nM [3H]ramatroban; 1 hour, room temperature.
Excerpt: A whole cell receptor binding assay using [^3H]ramatroban as the competing radioactive ligand was employed to evaluate the compound binding activity to human CRTH2. The radioactive ligand [^3H]ramatroban was synthesized according to Sugimoto et. al. (Eur. J. Pharmacol. 524, 30-37, 2005) to a specific activity of 42 Ci/mmol.
A cell line stably expressing human CRTH2 was established by transfecting CHO-K1 cells with two mammalian expression vectors that harbored human CRTH2 and G-alpha16 cDNAs, respectively, using FuGene® 6 transfection reagent (from Roche). Stable clones expressing CRTH2 were selected by staining each clone with BM16 (BD Pharmingen™ from BD Biosciences, a division of Becton, Dickinson and Company), which is a rat monoclonal antibody to human CRTH2. The cells were maintained as monolayer cultures in Ham's F-12 medium containing 10% fetal bovine serum, 100 units/mL penicillin, 100 μg/mL streptomycin, 2 mM glutamine, 0.5 mg/mL G418 (geneticin) for CRTH2, and 0.2 mg/mL hygromycin-B (for G-alpha 16). For whole cell receptor binding assay, the monolayer cells were rinsed once with PBS (phosphate buffered saline), dissociated using ethylenediaminetetraacetate (Versene™ EDTA from Lonza Inc.), and suspended in PBS containing 10 mM MgCl2 and 0.06% BSA (bovine serum albumin) at 1.5×10^6 cells/mL.
The binding reactions (0.2 mL) were performed in 96-well plates at room temperature in PBS containing 1.5×10^5 cells, 10 mM MgCl2, 0.06% BSA, 20 nM [^3H]ramatroban, and test compound at various concentrations. After 1 hour of binding reactions, the cells were harvested on GF™/B filter microplates (microtiter plates with embedded glass fiber from PerkinElmer, Inc.) and washed 5 times with PBS using a Filtermate™ Harvester (a cell harvester that harvests and washes cells from microplates from PerkinElmer, Inc.). The radioactivities bound to the cells were determined using a microplate scintillation counter (TopCount® NXT, from PerkinElmer, Inc.) after adding 50 μL of Microscint™ 20 scintillation fluid (from PerkinElmer, Inc.) to each well of the filter plates. The radioactivity from non-specific binding was determined by replacing compound with 10 μM of 15(R)-15-methyl PGD2 (from Cayman Chemical Company) in the reaction mixtures. The radioactivity bound to the cells in the absence of compound (total binding) was determined by replacing compound with 0.25% of DMSO (dimethyl sulfoxide) in the reaction mixture. Specific binding data were obtained by subtracting the radioactivity of non-specific binding from each binding data.
as §1

On to `CN([C@@H]1CCCc2c(OCC(=O)O)cccc21)S(=O)(=O)c1cc(C(C)(C)C)cc(C(C)(C)C)c1` [Example 1-2, {(R)-5-[(3,5-di-tert-butyl-benzenesulfonyl)-methyl-amino]-5,6,7,8-tetrahydro-naphthalen-1-yloxy}-acetic acid], for which the IC50 is above 10000 nM in assay [1] and 177 nM at human CRTH2.
Taken in the same sequence, the figures for `CN([C@@H]1CCCc2c(OCC(=O)O)cccc21)S(=O)(=O)c1cc(S(C)(=O)=O)cc(S(C)(=O)=O)c1` [Example 1-3, {(R)-5-[(3,5-bis-methanesulfonyl-benzenesulfonyl)-methyl-amino]-5,6,7,8-tetrahydro-naphthalen-1-yloxy}-acetic acid] were above 10000 nM and 15.7 nM.
With `COc1cc(C(F)(F)F)cc(S(=O)(=O)N(C)[C@@H]2CCCc3c(OCC(=O)O)cccc32)c1` [Example 1-4, {(R)-5-[(3-methoxy-5-trifluoromethyl-benzenesulfonyl)-methyl-amino]-5,6,7,8-tetrahydro-naphthalen-1-yloxy}-acetic acid], the IC50 in assay [1] is above 10000 nM; at human CRTH2, 110 nM.
In the same order, the values of `CN([C@@H]1CCCc2c(OCC(=O)O)cccc21)S(=O)(=O)c1cc(Br)cc(C(F)(F)F)c1` [Example 1-5, {(R)-5-[(3-bromo-5-trifluoromethyl-benzenesulfonyl)-methyl-amino]-5,6,7,8-tetrahydro-naphthalen-1-yloxy}-acetic acid] are above 10000 nM and 74.2 nM.
Turning to `CN([C@@H]1CCCc2c(OCC(=O)O)cccc21)S(=O)(=O)c1cc(C(F)(F)F)cc(C(F)(F)F)c1` [Example 1-6, {(R)-5-[(3,5-bis-trifluoromethyl-benzenesulfonyl)-methyl-amino]-5,6,7,8-tetrahydro-naphthalen-1-yloxy}-acetic acid], the IC50 was above 10000 nM in assay [1] and 18.3 nM at human CRTH2.
For `CC(C)[S+]([O-])c1cc(C(F)(F)F)cc(S(=O)(=O)N(C)[C@@H]2CCCc3c(OCC(=O)O)cccc32)c1` (stereo partly drawn) [Example 2-1, ((R)-5-{methyl-[3-(propane-2-sulfinyl)-5-trifluoromethyl-benzenesulfonyl]-amino}-5,6,7,8-tetrahydro-naphthalen-1-yloxy)-acetic acid], the IC50 in assay [1] is above 10000 nM; on human CRTH2, 6.8 nM.
As to `CN([C@@H]1CCCc2c(OCC(=O)O)cccc21)S(=O)(=O)c1cc(C(F)(F)F)cc(S(=O)(=O)C2CCCC2)c1` [Example 3-1, {(R)-5-[(3-cyclopentanesulfonyl-5-trifluoromethyl-benzenesulfonyl)-methyl-amino]-5,6,7,8-tetrahydro-naphthalen-1-yloxy}-acetic acid], the IC50 in assay [1] is above 10000 nM; on human CRTH2, 2.9 nM.
Taken in the same sequence, the figures for `CC(C)S(=O)(=O)c1cc(C(F)(F)F)cc(S(=O)(=O)N(C)[C@@H]2CCCc3c(OCC(=O)O)cccc32)c1` [Example 3-2, ((R)-5-{methyl-[3-(propane-2-sulfonyl)-5-trifluoromethyl-benzenesulfonyl]-amino}-5,6,7,8-tetrahydro-naphthalen-1-yloxy)-acetic acid] were above 10000 nM and 3.6 nM.
Taken in the same sequence, the figures for `CN([C@@H]1CCCc2c(OCC(=O)O)cccc21)S(=O)(=O)c1cc(C(F)(F)F)cc(S(=O)(=O)C(C)(C)C)c1` [Example 3-3, ((R)-5-{methyl-[3-(2-methyl-propane-2-sulfonyl)-5-trifluoromethyl-benzenesulfonyl]-amino}-5,6,7,8-tetrahydro-naphthalen-1-yloxy)-acetic acid] were above 10000 nM and 3.4 nM.
As for `CN([C@@H]1CCCc2c(OCC(=O)O)cccc21)S(=O)(=O)c1cc(N2CCCC2)cc(C(F)(F)F)c1` [Example 4-1, {(R)-5-[methyl-(3-pyrrolidin-1-yl-5-trifluoromethyl-benzenesulfonyl)-amino]-5,6,7,8-tetrahydro-naphthalen-1-yloxy}-acetic acid], the IC50 was above 10000 nM in assay [1] and 127 nM at human CRTH2.
As to `CC(C)N(C)c1cc(C(F)(F)F)cc(S(=O)(=O)N(C)[C@@H]2CCCc3c(OCC(=O)O)cccc32)c1` [Example 4-3, ((R)-5-{[3-(isopropyl-methyl-amino)-5-trifluoromethyl-benzenesulfonyl]-methyl-amino}-5,6,7,8-tetrahydro-naphthalen-1-yloxy)-acetic acid], the IC50 is above 10000 nM in assay [1] and 410 nM on human CRTH2.
Taken in the same sequence, the figures for `CN([C@@H]1CCCc2c(OCC(=O)O)cccc21)S(=O)(=O)c1cc(C(C)(F)F)cc(C(F)(F)F)c1` [Example 5-1, ((R)-5-{[3-(1,1-difluoro-ethyl)-5-trifluoromethyl-benzenesulfonyl]-methyl-amino}-5,6,7,8-tetrahydro-naphthalen-1-yloxy)-acetic acid] were above 10000 nM and 16.5 nM.
Regarding `CC(=O)c1cc(C(F)(F)F)cc(S(=O)(=O)N(C)[C@@H]2CCCc3c(OCC(=O)O)cccc32)c1` [Example 6-1, {(R)-5-[(3-acetyl-5-trifluoromethyl-benzenesulfonyl)-methyl-amino]-5,6,7,8-tetrahydro-naphthalen-1-yloxy}-acetic acid], the IC50 in assay [1] was above 10000 nM; on human CRTH2, 78.2 nM.
In the same order, the values of `CN([C@@H]1CCCc2c(OCC(=O)O)cccc21)S(=O)(=O)c1cc(C(F)(F)F)cc(C2(C)CC2)c1` [Example 7-1, ((R)-5-{methyl-[3-(1-methyl-cyclopropyl)-5-trifluoromethyl-benzenesulfonyl]-amino}-5,6,7,8-tetrahydro-naphthalen-1-yloxy)-acetic acid] are above 10000 nM and 76.6 nM.
